The values below come from patent US20230111853A1, “COMPOUNDS MODULATING PROTEIN RECRUITMENT AND/OR DEGRADATION” (Orionis Biosciences, Inc., priority 2019, published 2023).

Type in all cases: cell-based
Assay [1] addresses T1, IKZF1 (isoform 7) recruitment to CRBN (Homo sapiens, UniProt Q96SW2).
T1 construct: Full size proteins were fused for each of the target proteins tested, except in the case of IKZF1 where isoform 7 was used; expressed in transfected cells; host or cells: HEK293T
Description: Recruitment Assay (MAPPIT-like): IKZF1 recruitment to CRBN. To be noted: HEK293T cells; pSEL-CRBN+pMG1-IKZF1(isoform 7); luciferase 24 hours after treatment; read-out: EC50_IKZF1. Here is the method:
(§1) In this experimental set-up, cells were transfected with a construct encoding a CRBN-fusion protein and another one encoding a substrate-fusion protein. Test compound activity was assessed with increasing concentrations of test compounds (dose-response studies) to monitor the ability to promote CRBN-ligand-induced protein interaction.
(§2) Full size proteins were fused for each of the target proteins tested, except in the case of IKZF1 where isoform 7 was used. For the study, the following were used: IKZF1 recruitment: pSEL-CRBN+pMG1-IKZF1(isoform 7); ASS1 recruitment: pSEL-CRBN+pMG1-ASS1. SALL4 recruitment: pSEL-SALL4+pMG1-CRBN. […] Luciferase activity was measured 24 hours after test compound treatment using the Luciferase Assay System kit (PROMEGA, Madison, Wis.) with an Ensight plate reader (PERKIN ELMER LIFE SCIENCES, Waltham, Mass.). Data points depicted fold induction of the average luciferase activity of triplicate samples from EPO+test compound treated cells versus EPO only treated cells. Error bars represent standard deviations. Curves were fit using 4-parameter nonlinear regression in […] PRISM software.

The target of assay [2] is T2, SALL4 recruitment to CRBN (Homo sapiens, UniProt Q96SW2).
T2 construct: Full size proteins were fused for each of the target proteins tested, except in the case of IKZF1 where isoform 7 was used; expressed in transfected cells; host or cells: HEK293T
T2 sequence (Q96SW2 whole entry, the tested form may be a part, canonical isoform): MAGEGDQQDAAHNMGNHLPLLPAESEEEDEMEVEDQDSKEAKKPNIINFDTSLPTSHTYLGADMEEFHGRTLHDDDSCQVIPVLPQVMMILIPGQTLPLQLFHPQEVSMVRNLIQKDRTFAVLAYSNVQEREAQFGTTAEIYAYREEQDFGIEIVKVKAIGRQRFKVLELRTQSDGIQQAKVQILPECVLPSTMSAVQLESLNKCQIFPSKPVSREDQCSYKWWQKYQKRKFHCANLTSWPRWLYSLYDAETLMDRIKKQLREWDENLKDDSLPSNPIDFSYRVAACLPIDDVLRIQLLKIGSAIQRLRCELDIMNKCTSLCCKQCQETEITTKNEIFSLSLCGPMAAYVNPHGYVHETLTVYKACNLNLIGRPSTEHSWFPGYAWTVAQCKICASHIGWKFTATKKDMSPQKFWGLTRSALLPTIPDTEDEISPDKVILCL
T2 sequence (Q9UJQ4 whole entry partner, the tested form may be a part, canonical isoform): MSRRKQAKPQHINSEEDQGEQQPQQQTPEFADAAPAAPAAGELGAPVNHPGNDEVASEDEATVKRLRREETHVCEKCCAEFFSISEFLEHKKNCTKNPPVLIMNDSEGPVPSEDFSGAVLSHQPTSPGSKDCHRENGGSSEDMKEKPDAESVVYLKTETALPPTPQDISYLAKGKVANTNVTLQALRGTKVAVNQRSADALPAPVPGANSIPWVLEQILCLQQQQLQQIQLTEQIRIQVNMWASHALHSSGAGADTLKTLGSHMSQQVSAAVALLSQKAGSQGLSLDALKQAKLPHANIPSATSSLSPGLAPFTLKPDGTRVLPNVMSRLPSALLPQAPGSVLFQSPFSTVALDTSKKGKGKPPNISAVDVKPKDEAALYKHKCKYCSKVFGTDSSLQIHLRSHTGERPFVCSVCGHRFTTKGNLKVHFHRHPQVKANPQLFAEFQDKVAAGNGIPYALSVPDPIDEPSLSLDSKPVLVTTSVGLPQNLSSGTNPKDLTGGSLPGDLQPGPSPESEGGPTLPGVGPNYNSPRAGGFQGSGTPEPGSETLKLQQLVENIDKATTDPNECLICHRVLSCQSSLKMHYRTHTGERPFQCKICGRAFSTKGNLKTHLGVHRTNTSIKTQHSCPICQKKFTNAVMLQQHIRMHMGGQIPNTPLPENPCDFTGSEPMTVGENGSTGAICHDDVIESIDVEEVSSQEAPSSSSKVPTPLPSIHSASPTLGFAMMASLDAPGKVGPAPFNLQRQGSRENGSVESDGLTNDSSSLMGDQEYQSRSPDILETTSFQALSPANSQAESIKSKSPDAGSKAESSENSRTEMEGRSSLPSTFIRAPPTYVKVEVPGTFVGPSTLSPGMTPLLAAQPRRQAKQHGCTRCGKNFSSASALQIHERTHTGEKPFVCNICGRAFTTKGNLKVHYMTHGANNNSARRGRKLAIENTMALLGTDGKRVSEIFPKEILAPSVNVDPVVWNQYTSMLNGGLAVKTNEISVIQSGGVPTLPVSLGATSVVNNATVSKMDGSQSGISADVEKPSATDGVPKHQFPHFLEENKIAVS
T2 sequence (Q16531 whole entry partner, the tested form may be a part, canonical isoform): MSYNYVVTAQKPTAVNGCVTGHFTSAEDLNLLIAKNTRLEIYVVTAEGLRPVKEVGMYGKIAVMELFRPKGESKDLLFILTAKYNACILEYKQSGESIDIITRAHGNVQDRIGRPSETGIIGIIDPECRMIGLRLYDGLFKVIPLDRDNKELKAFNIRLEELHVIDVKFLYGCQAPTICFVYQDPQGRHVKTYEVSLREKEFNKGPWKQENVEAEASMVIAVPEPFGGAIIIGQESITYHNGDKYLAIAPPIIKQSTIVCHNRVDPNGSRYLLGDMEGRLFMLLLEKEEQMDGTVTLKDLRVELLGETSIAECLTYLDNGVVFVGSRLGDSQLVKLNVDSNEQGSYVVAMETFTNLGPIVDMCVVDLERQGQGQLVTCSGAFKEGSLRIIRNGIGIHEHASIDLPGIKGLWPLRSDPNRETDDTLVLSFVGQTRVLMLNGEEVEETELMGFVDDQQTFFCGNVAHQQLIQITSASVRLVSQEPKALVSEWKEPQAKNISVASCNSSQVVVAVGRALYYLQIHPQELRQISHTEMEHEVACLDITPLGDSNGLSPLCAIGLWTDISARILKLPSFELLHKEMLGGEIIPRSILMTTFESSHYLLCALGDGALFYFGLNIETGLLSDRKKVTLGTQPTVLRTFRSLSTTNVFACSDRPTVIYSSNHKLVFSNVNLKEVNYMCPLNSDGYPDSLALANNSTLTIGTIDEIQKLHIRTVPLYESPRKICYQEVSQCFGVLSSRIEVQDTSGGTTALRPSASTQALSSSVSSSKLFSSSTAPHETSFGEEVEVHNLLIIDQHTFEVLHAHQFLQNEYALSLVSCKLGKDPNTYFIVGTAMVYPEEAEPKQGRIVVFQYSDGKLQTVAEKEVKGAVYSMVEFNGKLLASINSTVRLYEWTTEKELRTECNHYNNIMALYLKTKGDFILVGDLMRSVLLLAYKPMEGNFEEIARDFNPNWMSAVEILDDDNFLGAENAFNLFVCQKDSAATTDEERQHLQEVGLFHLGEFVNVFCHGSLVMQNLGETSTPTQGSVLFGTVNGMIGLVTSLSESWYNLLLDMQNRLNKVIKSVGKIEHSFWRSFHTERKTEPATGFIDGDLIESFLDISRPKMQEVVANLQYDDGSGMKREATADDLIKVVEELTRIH
Description: Recruitment Assay (MAPPIT-like): SALL4 recruitment to CRBN. The note with it: HEK293T cells; pSEL-SALL4+pMG1-CRBN; luciferase 24 hours after treatment; read-out: EC50_SALL4. On the procedure:
as §1, §2

Assay [3] deals with IKZF1, ASS1 and SALL4 recruitment to CRBN. The assay can be described thus: Recruitment assessment: recruitment of any tested substrate from among IKZF1, ASS1 and SALL4. The note with it: any tested substrate at any tested compound concentration.

T1 sequence (Q96SW2 whole entry, the tested form may be a part, canonical isoform): as the sequence (Q96SW2 whole entry, the tested form may be a part, canonical isoform) above
T1 sequence (Q13422 1-477 isoform Q13422-7 partner): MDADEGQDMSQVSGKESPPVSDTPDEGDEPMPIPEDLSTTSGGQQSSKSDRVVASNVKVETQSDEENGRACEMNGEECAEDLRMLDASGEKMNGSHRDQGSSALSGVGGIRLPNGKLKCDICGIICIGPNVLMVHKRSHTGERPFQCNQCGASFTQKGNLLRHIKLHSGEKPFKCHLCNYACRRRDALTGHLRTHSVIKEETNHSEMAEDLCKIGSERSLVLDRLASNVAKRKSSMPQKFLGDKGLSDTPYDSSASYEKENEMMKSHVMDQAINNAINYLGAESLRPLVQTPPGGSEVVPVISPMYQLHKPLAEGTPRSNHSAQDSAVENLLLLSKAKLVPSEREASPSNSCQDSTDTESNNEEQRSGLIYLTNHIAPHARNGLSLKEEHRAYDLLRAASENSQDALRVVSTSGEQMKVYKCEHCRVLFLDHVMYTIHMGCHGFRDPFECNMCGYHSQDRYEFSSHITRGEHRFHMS
T1 sequence (Q16531 whole entry partner, the tested form may be a part, canonical isoform): as the sequence (Q16531 whole entry partner, the tested form may be a part, canonical isoform) above

In the case of `O=C(CNc1ccc2c(c1)CN(C1CCC(=O)NC1=O)C2=O)NCc1ccccc1` (centres unmarked) [C35856], the EC50 in assay [1] came out at 1150 nM; in assay [2] it was 188 nM. Besides, in assay [3], the “Recruitment Assessment” value was “TRUE”.

For `O=C(O)CN1CCN(Cc2ccc(COc3cccc4c3CN(C3CCC(=O)NC3=O)C4=O)cc2)CC1.O=CO` (centres unmarked) [ZE26-0001, 2-[4-[[4-[[2-(2,6-dioxo-3-piperidyl)-1-oxo-isoindolin-4-yl]oxymethyl]phenyl]methyl]piperazin-1-yl]acetic acid; formic acid], the EC50 came out at 4680 nM in assay [1] and 801 nM in assay [2]. Besides, the “Recruitment Assessment” value in assay [3] is recorded as “TRUE”.

Consider `CS(=O)(=O)Nc1cccc2c1CN(C1CCC(=O)NC1=O)C2=O` (centres unmarked) [C22548, N-[2-(2,6-dioxo-3-piperidyl)-1-oxo-isoindolin-4-yl] methanesulfonamide], for which the EC50 came out at 494 nM in assay [1] and 631 nM in assay [2]. In addition, in assay [3], the “Recruitment Assessment” value is reported as “TRUE”.

`O=C1CCC(N2Cc3c(NC(=O)Nc4cccc5c4CN(C4CCC(=O)NC4=O)C5=O)cccc3C2=O)C(=O)N1` (centres unmarked) [C30231, 1,3-bis[2-(2,6-dioxo-3-piperidyl)-1-oxo-isoindolin-4-yl]urea]: the EC50 in assay [1] was found to be 2730 nM; in assay [2], 1700 nM. In assay [3], the “Recruitment Assessment” value is recorded as “TRUE”.

With `NC(=O)c1cccc(NC(=O)CNc2ccc3c(c2)CN(C2CCC(=O)NC2=O)C3=O)c1` (centres unmarked) [C35811, 3-[[2-[[2-(2,6-dioxo-3-piperidyl)-1-oxo-isoindolin-5-yl]amino]acetyl]amino]benzamide], in assay [2], the EC50 worked out at 641 nM. For the same compound, the “Recruitment Assessment” value in assay [3] was “TRUE”.

Regarding `COCC(=O)Nc1cccc2c1CN(C1CCC(=O)NC1=O)C2=O` (centres unmarked) [C22564, N-[2-(2,6-dioxo-3-piperidyl)-1-oxo-isoindolin-4-yl]-2-methoxy-acetamide], the EC50 in assay [2] is 873 nM. In addition, the “Recruitment Assessment” value in assay [3] is reported as “TRUE”.

As to `O=C1CCC(N2Cc3cc(-c4ccccc4)ccc3C2=O)C(=O)N1` (centres unmarked) [C48016, 3-(1-oxo-5-phenyl-isoindolin-2-yl)piperidine-2,6-dione], the EC50 in assay [2] amounted to 122 nM. In addition, the “Recruitment Assessment” value in assay [3] is reported as “TRUE”.

With `O=C1CCC(N2Cc3cc(NCC(=O)Nc4ccccc4)ccc3C2=O)C(=O)N1` (centres unmarked) [C35797, 2-[[2-(2,6-dioxo-3-piperidyl)-1-oxo-isoindolin-5-yl]amino]-N-phenyl-acetamide], the EC50 in assay [1] was 1330 nM; in assay [2], 1080 nM. In assay [3], the “Recruitment Assessment” value was “TRUE”.

As to `O=C1CCC(N2C(=O)c3ccccc3C2NCc2ccccc2)C(=O)N1` (centres unmarked) [C10239, 3-[1-(benzylamino)-3-oxo-isoindolin-2-yl]piperidine-2,6-dione], the EC50 in assay [2] was determined as 1160 nM. Moreover, the “Recruitment Assessment” value in assay [3] is “TRUE”.

Take `N#CC1c2ccccc2C(=O)N1C1CCC(=O)NC1=O` (centres unmarked) [C39453, 2-(2,6-dioxo-3-piperidyl)-3-oxo-isoindoline-1-carbonitrile]: the EC50 is 17100 nM in assay [1] and 875 nM in assay [2]. The “Recruitment Assessment” value in assay [3] was “TRUE”.

In the case of `N#Cc1ccc2c(c1)CN(C1CCC(=O)NC1=O)C2=O` (centres unmarked) [C48005, 2-(2,6-dioxo-3-piperidyl)-1-oxo-isoindoline-5-carbonitrile], in assay [2], the EC50 was found to be 595 nM. For the same compound, the “Recruitment Assessment” value in assay [3] is “TRUE”.

Consider `O=C1CCC(N2Cc3ccc(Nc4ncc5c(n4)COC5)cc3C2=O)C(=O)N1` (centres unmarked) [C80391, 3-[6-(5,7-dihydrofuro[3,4-d]pyrimidin-2-ylamino)-1-oxo-isoindolin-2-yl]piperidine-2,6-dione], for which the EC50 in assay [2] turned out to be 152 nM. In addition, the “Recruitment Assessment” value in assay [3] is given as “TRUE”.

In the case of `O=C1CCC(N2Cc3cccc(F)c3C2=O)C(=O)N1` (centres unmarked) [C23066, 3-(7-fluoro-1-oxo-isoindolin-2-yl)piperidine-2,6-dione], in assay [2], the EC50 amounted to 88.2 nM. The “Recruitment Assessment” value in assay [3] is given as “TRUE”.

Take `Cc1ccc2c(c1)C(=O)N(C1CCC(=O)NC1=O)C2` (centres unmarked) [C28620, 3-(6-methyl-1-oxo-isoindolin-2-yl)piperidine-2,6-dione]: the EC50 in assay [2] came out at 270 nM. Besides, the “Recruitment Assessment” value in assay [3] is “TRUE”.

For the compound `O=C1CCCC(N2Cc3c(cccc3[N+](=O)[O-])C2=O)C(=O)N1` (centres unmarked) [C29737, 3-(4-nitro-1-oxo-isoindolin-2-yl)azepane-2,7-dione], in assay [1], the EC50 is 1410 nM. Besides, the “Recruitment Assessment” value in assay [3] is recorded as “TRUE”.

For `O=C1CCC(N2C(=O)C3=C(C2=O)c2ccccc2CC3)C(=O)N1` (centres unmarked) [C64340, 2-(2,6-dioxo-3-piperidyl)-4,5-dihydrobenzo[e]isoindole-1,3-dione], the EC50 in assay [2] came to 1490 nM. Also, in assay [3], the “Recruitment Assessment” value was “TRUE”.

Regarding `O=C1CCC(N2Cc3ccc(-c4ccccc4)cc3C2=O)C(=O)N1` (centres unmarked) [C48018, 3-(1-oxo-6-phenyl-isoindolin-2-yl)piperidine-2,6-dione], the EC50 in assay [2] was determined as 395 nM. The “Recruitment Assessment” value in assay [3] is on record as “TRUE”.

For the compound `CN(C)c1ccc2c(c1)CN(C1CCC(=O)NC1=O)C2=O` (centres unmarked) [C98103, 3-[5-(dimethylamino)-1-oxo-isoindolin-2-yl]piperidine-2,6-dione], the EC50 in assay [1] is 1290 nM; in assay [2] it was under 13.7 nM. For the same compound, in assay [3], the “Recruitment Assessment” value is reported as “TRUE”.

Turning to `CC(=O)NC1c2ccccc2C(=O)N1C1CCC(=O)NC1=O` (centres unmarked) [C33779, N-[2-(2,6-dioxo-3-piperidyl)-3-oxo-isoindolin-1-yl]acetamide], in assay [2], the EC50 is 3030 nM. Besides, in assay [3], the “Recruitment Assessment” value was “TRUE”.

As to `CC(=O)Nc1ccc2c(c1)CN(C1CCC(=O)NC1=O)C2=O` (centres unmarked) [C29361, N-[2-(2,6-dioxo-3-piperidyl)-1-oxo-isoindolin-5-yl]acetamide], the EC50 in assay [2] was found to be 186 nM. For the same compound, the “Recruitment Assessment” value in assay [3] is “TRUE”.

Turning to `Cc1nc2ccc(C#N)c(N)c2c(=O)n1C1CCC(=O)NC1=O` (centres unmarked) [C10001, 5-amino-3-(2,6-dioxo-3-piperidyl)-2-methyl-4-oxo-quinazoline-6-carbonitrile], the EC50 in assay [2] amounted to 1250 nM. Also, in assay [3], the “Recruitment Assessment” value is reported as “TRUE”.

For `O=C1CCC(N2Cc3ccc(NCC(=O)NC4CCOCC4)cc3C2=O)C(=O)N1` (centres unmarked) [C12693, 2-[[2-(2,6-dioxo-3-piperidyl)-3-oxo-isoindolin-5-yl]amino]-N-tetrahydropyran-4-yl-acetamide], the EC50 in assay [2] was determined as 2620 nM. Further, the “Recruitment Assessment” value in assay [3] is “TRUE”.

As for `CC(C)OC1c2ccccc2C(=O)N1C1CCC(=O)NC1=O` (centres unmarked) [3-(1-isopropoxy-3-oxo-isoindolin-2-yl)piperidine-2,6-dione], the EC50 in assay [2] was 2700 nM. Moreover, in assay [3], the “Recruitment Assessment” value was “TRUE”.

Consider `Nc1cccc2c1CN(C1CC(=O)NC1=O)C2=O` (centres unmarked) [C47930, 3-(4-amino-1-oxo-isoindolin-2-yl)pyrrolidine-2,5-dione], for which, in assay [1], the EC50 was found to be 784 nM. Besides, the “Recruitment Assessment” value in assay [3] is “TRUE”.

Consider `CCOC(=O)NCCNc1ccc2c(c1)CN(C1CCC(=O)NC1=O)C2=O` (centres unmarked) [C35754, ethyl N-[2-[[2-(2,6-dioxo-3-piperidyl)-1-oxo-isoindolin-5-yl]amino]ethyl]carbamate], for which the EC50 in assay [2] was found to be 278 nM. The “Recruitment Assessment” value in assay [3] is on record as “TRUE”.

As to `Cc1ccc2c(=O)n(C3CCC(=O)NC3=O)nnc2c1` (centres unmarked) [C17800, 3-(7-methyl-4-oxo-1,2,3-benzotriaan-3-yl)piperidirie-2,6-dione], the EC50 in assay [2] is 904 nM. Further, the “Recruitment Assessment” value in assay [3] was “TRUE”.

On to `O=C1CCC(N2Cc3ccc(NC(=O)c4cnc5nccn5c4)cc3C2=O)C(=O)N1` (centres unmarked) [C80396, N-[2-(2,6-dioxo-3-piperidyl)-3-oxo-isoindolin-5-yl]imidazo[1,2-a] pyrimidine-6-carboxamide], for which the EC50 in assay [2] was found to be 1380 nM. Besides, in assay [3], the “Recruitment Assessment” value is recorded as “TRUE”.

Consider `O=C(O)CNc1cccc2c1C(=O)N(C1CCC(=O)NC1=O)C2` (centres unmarked) [C47998, 2-[[2-(2,6-dioxo-3-piperidyl)-3-oxo-isoindolin-4-yl]amino]acetic acid], for which, in assay [2], the EC50 is 2170 nM. For the same compound, the “Recruitment Assessment” value in assay [3] is given as “TRUE”.

Regarding `O=C(O)CNc1ccc2c(c1)CN(C1CCC(=O)NC1=O)C2=O` (centres unmarked) [C47995, 2-[[2-(2,6-dioxo-3-piperidyl)-1-oxo-isoindolin-5-yl]amino]acetic acid], in assay [2], the EC50 came to 518 nM. Also, the “Recruitment Assessment” value in assay [3] is given as “TRUE”.

Regarding `O=C1CCC(N2Cc3cc4c(cc3C2=O)OCO4)C(=O)N1` (centres unmarked) [C68126, 3-(7-oxo-5H-[1,3]dioxolo[4,5-f]isoindol-6-yl)piperidine-2,6-dione], the EC50 in assay [2] is 319 nM. For the same compound, the “Recruitment Assessment” value in assay [3] was “TRUE”.

For the compound `CC(Nc1ccc2c(c1)C(=O)N(C1CCC(=O)NC1=O)C2)C(=O)O` (centres unmarked) [C84970, 2-[[2-(2,6-dioxo-3-piperidyl)-3-oxo-isoindolin-5-yl]amino] propanoic acid], the EC50 in assay [2] amounted to 1010 nM. Besides, in assay [3], the “Recruitment Assessment” value was “TRUE”.

Regarding `CC(=O)NCCNc1ccc2c(c1)CN(C1CCC(=O)NC1=O)C2=O` (centres unmarked) [C35745, N-[2-[[2-(2,6-dioxo-3-piperidyl)-1-oxo-isoindolin-5-yl]amino]ethyl]acetamide], the EC50 in assay [2] came to 2630 nM. For the same compound, the “Recruitment Assessment” value in assay [3] is “TRUE”.
